The values that follow come from article PMC13534789, “Molecular Glue Degraders Enhance CAPRIN1‐Dependent Lysosomal Degradation of APP and Reduce Amyloid β in Alzheimer's Disease” (Advanced Science, 2026).

For one test, the system named is APP mRNA. Description: qRT-PCR of APP mRNA. The note with it: 72 h. Type of test: cell-based, human. On the procedure:
Total RNA was isolated using the RNeasy kit (Qiagen), followed by synthesis for cDNA with a reverse transcription reaction (Quantitect Reverse Transcription kit). The sequences for APP and GAPDH are in Table S1. Quantitative PCR was performed on QuantStudio 6 Flex (Applied Biosystems). The expression levels of APP were normalized to the GAPDH mRNA levels and represented relative to the expression in control cells. The results were analyzed with the delta‐delta‐Ct methods. Ct values were calculated using QuantStudio Design & Analysis Software, and relative expression levels were analyzed with GraphPad Prism.

In a further test the test system is 5xFAD transgenic mice. As to the kind of experiment: Amyloid pathology in 5xFAD mice (IHC, Thioflavin S, ELISA). Type of test: in vivo, mouse. From the text: Female 5xFAD transgenic mice (9–10 weeks old) were used to evaluate the efficacy of 0152 in reducing amyloid pathology. Mice were housed under Indiana University standard laboratory conditions. For intraperitoneal (IP) administration, mice received either vehicle or 0152 (indicated concentrations) in a formulation consisting of 20% DMSO, 20% Cremophor EL, and 60% PBS. For oral (PO) administration, mice received either vehicle or 0152 (indicated concentrations) in a formulation consisting of 10% NMP (N‐methyl‐2‐pyrrolidone), 10% PG (Propylene Glycol), 5% Solutol HS‐15, and 75% Captisol (10% w/v in RO water). At the end of the treatment period, mice were sacrificed, and their brains were collected for histological analysis. Brain tissues were fixed in 10% Formalin, embedded in paraffin, and sectioned. Thioflavin S staining was performed to visualize β‐sheet‐rich amyloid plaques, and immunohistochemistry was conducted using the 6E10 monoclonal antibody to detect Aβ plagues. Body weights were recorded daily throughout the study.
iPSC‐Ns or HEK‐APP695WT were treated with drugs, and secreted Aβ42 peptides inculture soup were quantified using the Human Amyloid β1‐42 human ELISA kit (Thermo Fisher) according to the manufacturer's protocol. Mouse brain extraction was performed as previously described, with minor modifications. Mouse brain tissues were homogenized at a 1:10 weight‐to‐volume ratio in Tris‐buffered saline (TBS; 50 mM Tris, pH 7.4, 150 mM NaCl) supplemented with 2 mM EDTA and protease inhibitors. TBS‐homogenized brains were centrifuged for 1 h at 16 000 g. To extract total Aβ, including insoluble fractions, formic acid was added to a final concentration of 70%, and the samples were thoroughly mixed by pipetting. Homogenates were centrifuged at 100 000 g for 1 h at 4°C, and the resulting supernatants were collected. Prior to quantification, formic acid‐containing samples were neutralized with 1 M Tris base (pH 11). Aβ40 and Aβ42 levels were measured using human‐specific ELISA kits (Invitrogen) and normalized to total protein concentrations determined by the BCA assay (Thermo Scientific). For Aβ quantification in 3D organoids, 3D organoids’ processing and ELISA analysis were performed with minor modifications from previously described protocols. Briefly, cerebral organoids were lysed in RIPA buffer supplemented with protease and phosphatase inhibitor cocktails (Sigma), followed by sonication and incubation on ice for 60 min. Lysates were centrifuged at 13 000 rpm for 1 h at 4°C, and the supernatants were collected as the RIPA‐soluble fraction. The remaining pellets were resuspended in 70% formic acid, sonicated, and subsequently neutralized with Tris buffer to obtain the formic acid‐solubilized fraction. Aβ42 levels in both fractions were measured using human‐specific ELISA kits (Thermo Fisher) according to the manufacturer's instructions. Formic acid extracts were appropriately neutralized prior to ELISA. Aβ levels were normalized to total protein concentration determined by BCA assay.
Autopsy samples of brain tissues were provided, and immunohistochemistry was performed in the Department of Pathology and Laboratory Medicine, Indiana University School of Medicine, following the institutional protocols. Paraffin‐embedded 3D organoids and human AD patient brain samples were subjected to Hematoxylin and Eosin (H&E), synapses, GFAP, CAPRIN1 (polyclonal Rabbit anti‐CAPRIN1, 15112‐1‐AP, Proteintech), APP (monoclonal mouse anti‐APP/Aβ (6E10), 803001, Biolegend; MAB348, Millipore Sigma) in a Dako automated instrument using the Dako Flex detection system. The primary antibodies and secondary antibodies were used in colocalization experiments with human AD brain biopsy samples, then imaged using a confocal microscope system. Thioflavin‐S was stained with deparaffinization and rehydration of mouse brain sections using a series of xylene and ethanol washes. […]
(In general: In an ELISA, binding on a coated surface is turned into a signal by an enzyme label.)

Another test concerns the target T1, 3R‐APP695‐HiBiT (Homo sapiens, UniProt P05067, K724R/K725R/K726R).
T1 construct: expressed in transfected cells
Description: HiBiT luminescence and Aβ42 ELISA in 3R-APP695-HiBiT HEK cells. In kind it is cell-based. The following applies: KKK motif K649–K651 replaced by arginines, 72 h. An excerpt: To validate this interaction, we co‐expressed the C‐terminal domain of APP (HiBiT‐tagged C99) and the N‐terminus of FLAG‐tagged CAPRIN1 (residues 1–250) in HEK cells. Flag IP followed by western blotting confirmed the interaction between CAPRIN1 and APP (Figure 4H). To further delineate the interaction interface, we focused on a lysine‐rich (KKK) motif (K649–K651) within APP as a potential CAPRIN1‐interacting region, given its location within the cytosolic domain of C99 and its enrichment in basic residues that may mediate protein–protein interactions. To assess the functional relevance of this interaction in compound activity, we generated an APP695‐3R mutant, replacing the KKK motif (K649‐K651) with arginines by site‐directed mutagenesis. […] To further assess the role of this motif in APP‐CAPRIN1 interaction, we performed co‐immunoprecipitation experiments comparing WT‐ and 3R‐APP695‐HiBiT.
HEK293 cells were purchased from the American Type Culture Collection (ATCC). Lentiviral plasmids (pLV‐Hygro‐CMV‐hAPP, pLV‐Hygro‐CMV‐hAPP‐Hibit, and pLV‐Hygro‐CMV‐hAPP ‐3K to 3R‐Hibit) for APP695WT HEK293 and APP695‐Hibit HEK293 were generated in the third‐generation plasmid. […] Once expanded, clones were analyzed by ELISA for amyloid beta 42 (Aβ42), western blot for APP expression, and Hibit‐lytic assay (Promega). […]
In general terms: HiBiT is a short tag that completes a luciferase, so light tracks the accessible tagged protein.

The mark [1] stands for this setting: 80 mg/kg IP twice per day, 30 days.

Structures are written as SMILES.

As for `N#Cc1cccc(NC(=O)Nc2nc3ccc(C(=O)N4CCOCC4)cc3s2)c1` [compound 0043], the “APP mRNA expression (qRT-PCR)” value in the test with APP mRNA (AD iPSC-Ns) was “nor did it alter APP mRNA expression”. For the same compound, in the test with APP mRNA (HEK-APP695WT cells), the “APP mRNA (qRT-PCR)” value is “no significant changes”.

Regarding `COc1cccc(NC(=O)Nc2nc3ccc(C(=O)N4CCOCC4)cc3s2)c1` [compound 0152], in the test on 5xFAD transgenic mice (setting [1]), the “APP/Aβ-positive areas and plaque sizes in subiculum and hippocampus, plaque sizes in cortex (IHC)” value is “significantly reduced”; the “Fibrillar Aβ plaques in subiculum (Thioflavin S)” value was “drastically reduced fibrillar Aβ plaques”. The “APP/Aβ-positive areas and plaque sizes in subiculum (IHC, Thioflavin S)” value in the test with 5xFAD transgenic mice (80 mg/kg oral gavage twice daily, 30 days) is “significant reduction”. For the same compound, in the test on 5xFAD transgenic mice (100 mg/kg IP daily, 24 days), the “APP/Aβ-positive area and amyloid plaque size, hippocampus and subiculum (IHC)” value is “significant reductions”; the “Aβ40 and Aβ42 levels in hemispheric brain lysates (ELISA)” value is on record as “marked decreases”; the “Fibrillar Aβ plaques in subiculum (Thioflavin S)” value was “reduced fibrillar Aβ plaques”; the “Plaque burden in cortex (IHC)” value is “minimal changes”. The “Response of 3R-APP695-HiBiT cells (HiBiT luminescence, Aβ42 ELISA)” value on 3R‐APP695‐HiBiT is on record as “no response”.
